For the assay, the target named is T1, wild-type NALP1 (Homo sapiens, UniProt Q9C000).
T1 construct: to generate full-length NALP1 in frame with EGFP; expressed in transfected cells; host or cells: HeLa cells, transient transfection with the pEGFP-N3 based plasmid; S-100 extract used
T1 sequence (Q9C000 1-1473): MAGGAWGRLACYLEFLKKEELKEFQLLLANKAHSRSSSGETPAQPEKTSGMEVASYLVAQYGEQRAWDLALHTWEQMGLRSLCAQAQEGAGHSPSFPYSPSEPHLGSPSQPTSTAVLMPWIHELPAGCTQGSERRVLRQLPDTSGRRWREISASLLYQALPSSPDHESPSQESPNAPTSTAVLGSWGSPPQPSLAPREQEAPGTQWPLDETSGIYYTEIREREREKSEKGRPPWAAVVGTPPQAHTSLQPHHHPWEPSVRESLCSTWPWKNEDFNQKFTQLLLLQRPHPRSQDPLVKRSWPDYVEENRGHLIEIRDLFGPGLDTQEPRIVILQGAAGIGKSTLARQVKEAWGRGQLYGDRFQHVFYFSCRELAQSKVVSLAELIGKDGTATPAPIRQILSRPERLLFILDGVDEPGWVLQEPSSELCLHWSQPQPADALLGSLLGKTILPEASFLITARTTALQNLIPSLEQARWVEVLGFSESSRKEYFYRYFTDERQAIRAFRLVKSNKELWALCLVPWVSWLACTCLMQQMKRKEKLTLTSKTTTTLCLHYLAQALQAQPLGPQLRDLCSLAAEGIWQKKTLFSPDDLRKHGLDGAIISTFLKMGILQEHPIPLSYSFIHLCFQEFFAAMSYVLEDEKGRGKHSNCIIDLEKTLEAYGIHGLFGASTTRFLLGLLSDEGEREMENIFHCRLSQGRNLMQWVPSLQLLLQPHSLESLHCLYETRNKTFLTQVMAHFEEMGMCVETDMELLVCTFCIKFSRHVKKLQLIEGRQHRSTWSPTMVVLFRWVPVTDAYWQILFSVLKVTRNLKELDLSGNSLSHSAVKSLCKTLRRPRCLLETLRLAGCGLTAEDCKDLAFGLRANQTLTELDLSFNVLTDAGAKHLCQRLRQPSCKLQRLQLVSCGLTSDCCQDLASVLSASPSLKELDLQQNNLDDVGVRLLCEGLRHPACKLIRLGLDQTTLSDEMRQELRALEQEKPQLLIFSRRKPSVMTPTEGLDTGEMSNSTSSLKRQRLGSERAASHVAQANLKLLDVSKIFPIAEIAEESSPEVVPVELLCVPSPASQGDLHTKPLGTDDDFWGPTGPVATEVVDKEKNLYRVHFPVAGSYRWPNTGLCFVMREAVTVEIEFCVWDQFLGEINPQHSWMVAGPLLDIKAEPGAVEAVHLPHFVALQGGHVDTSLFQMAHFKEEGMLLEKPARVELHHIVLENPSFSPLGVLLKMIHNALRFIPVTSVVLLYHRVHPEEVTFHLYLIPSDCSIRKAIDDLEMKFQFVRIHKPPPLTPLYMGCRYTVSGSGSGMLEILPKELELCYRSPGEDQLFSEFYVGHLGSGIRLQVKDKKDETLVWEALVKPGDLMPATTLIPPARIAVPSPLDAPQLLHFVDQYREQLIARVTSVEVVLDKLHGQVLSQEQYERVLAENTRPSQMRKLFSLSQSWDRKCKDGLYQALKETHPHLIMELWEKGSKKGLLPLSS
Description: Fluorimetric DEVDase (caspase-3) assay in HeLa cell extracts expressing wild-type NALP1-EGFP. It counts as biochemical. The conditions noted are these: 2 mM dATP, 2 mM MgCl2, 1 hour, Ac-DEVD-AMC substrate. As for the experimental part:
Cell extract preparation and fluorimetric assay of caspase activity. Preparation of cell extracts, dATP incubation and caspase-3 activities assays were performed as described by Liu et al. (1996). Briefly, HeLa cells were grown in DMEM, 10% FBS. Cells were plated in T175 flasks to 60% confluence. Control vector pEGFP or wild-type or NBS mutant NALP1-EGFP expression plasmids were transfected into HeLa cells using Lipofectamine Plus. Cells were collected in homogenization buffer (20 mM HEPES pH 7.5, 10 mM KCl, 1 mM sodium EDTA, […], 1 mM sodium EGTA, 0.1% CHAPS, 1 mM DTT, 0.1 mM PMSF and protease inhibitor cocktail tablets (Roche)), 24 hours after transfection. Cells were chilled on ice for 15 minutes and homogenized by douncing 30 times in a glass douncer. Samples were centrifuged at 1000×g for 10 minutes at 4° C. […] After 2 hours incubation, liberation of AMC (7-amino-4-methylcoumarin) from the substrate was monitored using excitation/emission wavelength pairs (λex/λem) of 380/460 nm using a SpectraFluor Plus instrument (Tecan). Triplicate samples were evaluated with or without specific inhibitors. […] Normalized data from multiple experiments were expressed as means±standard deviation. For each experiment, the expression of EGFP-tagged NALP1 proteins was analyzed by anti-GFP immunoblot and quantified by densitometry.

In the case of `Nc1ncnc2c1ncn2[C@H]1C[C@H](O)[C@@H](COP(=O)(O)OP(=O)(O)OP(=O)(O)O)O1` [dATP], the “DEVDase activity, extracts with wild-type NALP1” value is recorded as “significantly elevated”.

Source of the values: patent US20040248775A1, “Methods for screening inhibitors of apoptosis” (Wyeth, priority 2003, published 2004).
